What was measured:
[1] = tested on: skin-grafted C57BL/6 mice; experiment: Skin graft animal model (BALB/c donor, C57BL/6 recipient); type: in vivo, mouse; conditions: GO88 0.15 mg/kg twice daily
Experimental: To evaluate the immune-suppressive effects of the compounds according to the present invention, a skin graft animal model was established, and the efficacy of the compounds was analyzed in the model.
First, female BALB/c mice aged 7 weeks and weighing approximately 20 g were used as donor animals, and female C57BL/6 mice of the same age and weight were used as recipient animals. All experimental animals were supplied by HanabioTech Co., Ltd.
Prior to the experiment, the animals were acclimatized in SPF-certified facilities for one week and then used in the experiment. The housing conditions were maintained at a temperature of 22±2° C., relative humidity of 55±10%, and a 12-hour light-dark cycle.
To establish the skin graft model, a anesthetic solution consisting of ketamine, […], and PBS in a volume ratio of 1:1:3 was administered intraperitoneally to C57BL/6 mice to induce anesthesia.
The hair on the dorsal side of the anesthetized mice was removed and disinfected, followed by excision of the full-thickness skin using an 8 mm punch. Subsequently, skin of the same size was harvested from donor mice (BALB/c) and transplanted. […]
Subsequently, the proportions of CD3- and B220-positive cells were analyzed using a flow cytometer.

[2] = target: T1, full-length (PDK1-FL) protein of human-derived PDK1 (Homo sapiens, UniProt O15530); experiment: Microscale Thermophoresis (MST) binding, full-length PDK1; conditions: Kd ratio
T1 construct: the full-length (PDK1-FL) protein of human-derived PDK1; inferred from the Ni-NTA purification; made in house; host or cells: Sf9 insect cells, baculovirus
T1 sequence (O15530 1-556): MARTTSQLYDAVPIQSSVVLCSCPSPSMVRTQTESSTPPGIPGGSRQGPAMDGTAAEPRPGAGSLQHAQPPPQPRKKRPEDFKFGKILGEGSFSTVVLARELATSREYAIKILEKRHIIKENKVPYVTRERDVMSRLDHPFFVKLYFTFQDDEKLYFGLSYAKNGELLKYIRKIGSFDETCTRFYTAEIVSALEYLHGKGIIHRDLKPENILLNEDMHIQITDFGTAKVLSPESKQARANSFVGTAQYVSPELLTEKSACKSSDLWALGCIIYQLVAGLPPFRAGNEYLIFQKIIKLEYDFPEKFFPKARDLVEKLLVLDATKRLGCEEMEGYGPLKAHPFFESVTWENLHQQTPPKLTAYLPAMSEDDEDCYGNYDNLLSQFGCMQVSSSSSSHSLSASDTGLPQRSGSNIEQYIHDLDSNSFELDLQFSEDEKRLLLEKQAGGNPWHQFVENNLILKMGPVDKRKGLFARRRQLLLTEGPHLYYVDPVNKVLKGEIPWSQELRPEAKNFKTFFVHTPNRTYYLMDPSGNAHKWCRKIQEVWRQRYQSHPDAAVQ
Experimental: Microscale Thermophoresis (MST) analysis was performed to quantitatively measure the binding affinity between PDK1 protein and substrate peptides (PDKTide) or the company-developed low-molecular-weight compound (GO88).
The target proteins were the full-length (PDK1-FL) protein of human-derived PDK1 and the Protein Kinase Domain (PKD) fragment, which were expressed using a baculovirus expression system in insect cell lines (Sf9).
The purity of the purified proteins was confirmed by SDS-PAGE and Coomassie Brilliant Blue staining.
The purified protein was labeled with a fluorescent label using the Monolith NT™ RED-NHS Protein Fluorescent Labeling Kit (NanoTemper).
Specifically, 20 μM of the protein was dissolved in PBS (pH 7.4) buffer, mixed with the fluorescent reagent, and reacted at room temperature under dark conditions for 30 minutes. The mixture was then buffered with MST analysis buffer (50 mM HEPES, 150 mM NaCl, 1 mM DTT, 0.05% Tween-20, pH 7.5). […]
The reaction samples were injected into an MST-specific capillary (NanoTemper) and analyzed using a Monolith NT.115 device (NanoTemper) under laser intensity conditions. […]
The measured data were analyzed using MO.Affinity Analysis software (NanoTemper), and the dissociation constant (Kd) was calculated from the binding curve.

- binding affinity of full-length PDK1 compared to the PDK fragment [2]: six times stronger binding affinity
SMILES: Nc1ncccc1C(=O)NCCCCCCCCCCCCN1CCNCC1 [Compound 14, 2-Amino-N-(12-(piperazin-1-yl)dodecyl)nicotinamide]
- animals with graft pinkening and good blood flow ([1]; day 10 post-transplantation): three out of five animals
- animals with graft pinkening and good blood flow ([1]; day 15 post-transplantation): one out of five animals
